The source of these data is US8137907B2, “Orthotopic and genetically tractable non-human animal model for liver cancer and the uses thereof” (Cold Spring Harbor Laboratory, priority 2005, dated 2012).

The test relates to subcutaneous liver tumor of genetic constellation p53−/−+Akt-over expression. Briefly: Subcutaneous liver cancer model, evaluation of tumor therapy (FIG. 7). The class given is in vivo, mouse. From the text:
FIG. 7: An example of subcutaneous liver cancer model of this invention on the genetic constellation p53−/−+Akt-over expression and its uses in evaluating tumor therapy. Akt is an […] that is activated in many cancers and may promote drug resistance in vitro (Mayo et al., “PTEN protects p53 from Mdm2 and sensitizes cancer cells to chemotherapy,” J. Biol. Chem. 277: 5484-5489 (2002)).
Most preferably, the therapies are used and evaluated in combination. […] The tumor embodied in FIG. 2 can also be treated with Rapamycin, a targeted therapy that inhibits the mammalian target of rapamycin (mTOR). […] In combination, however, as depicted in FIG. 7, the two therapies control tumor growth.

Regarding `Nc1ccn([C@@H]2O[C@H](CO)[C@@H](O)C2(F)F)c(=O)n1` [Gemcitabine], the tumor growth entry is “virtually no effect on tumor growth”.
